# Experimental data from patent publication US20170334927A1 (Shanghai Sun-sail Pharmaceutical Science & Technology Co., …, priority 2014, published 2017).
# Counter-ions that a name gives are not always drawn.
# Experiments:
# [1] = system: Mycobacterium tuberculosis H37Rv; assay: Activity test for Mycobacterium tuberculosis (MIC, H37Rv); format: cell-based; settings: for anti Mycobacterium tuberculosis activity (MIC against H37Rv), times of that of PA-824: relative to PA-824; for anti Mycobacterium tuberculosis activity (MIC against H37Rv), times of that of ethambutol: relative to ethambutol; for MIC: Mycobacterium tuberculosis H37Rv, liquid medium, 37° C., read-out: Minimum inhibitory concentration against H37Rv
# Procedure: The tested strain H37Rv was transferred to liquid medium and cultured for 2 weeks at 37° C.; a small amount of the cultured bacterial solution was pipetted and placed in 4 mL of liquid medium; 10-20 sterile glass beads with a diameter of 2-3 mm were added; the mixture was shaken for 20-30 s and left to sediment for 10-20 min; the supernatant of the bacterial suspension was pipetted and adjusted to a turbidity of 1 MCF (equivalent to 1×10^7 CFU/mL) with the liquid medium for use. Each drug was dissolved to 1 mg/mL with an appropriate amount of DMSO and filtered with a 0.22 μm filter. Then, the solution was diluted to a desired experimental concentration with the liquid medium. The final concentrations of the tested drugs were set as follows: 0.001 μg/mL, 0.002 μg/mL, 0.0039 μg/mL, 0.0078 μg/mL, […], 0.03125 μg/mL, 0.0625 μg/mL, 0.125 μg/mL, 0.25 μg/mL, 0.5 μg/mL and 1 μg/mL, a total of 11 concentration gradients. 100 μL of each of the above-mentioned drug solutions was added to a 96-well microwell plate, then 100 μL bacterial solution with a concentration of 1 mg/mL was added to allow the drug concentration to reach the final set concentration, and cultured at 37° C. Three groups in parallel were set for each drug dilution with inoculation amounts of 100%, 10% and 1%, respectively, while no drug was added to the control group.
# [2] = physchem; format: physicochemical; settings: for Solubility: 3 days, pH 1.2; for solubility at 3 days: pH 1.2, simulated gastric fluid, thermodynamic from solid
# Procedure: 3-5 mg of compound to be tested was added to 0.5 mL of aqueous HCl solution (pH=1.2) and the mixture was shaken for three days on a shaker; the sample was centrifuged for 5 min at 10,000 rpm in a centrifuge; a volumetric flask (50 mL) was loaded with 2 mL of supernatant and water was added to a volume at the graduation mark to prepare a sample solution; and 2.6 mg of sample was precisely weighed into a volumetric flask (50 mL), an appropriate amount of methanol was added to dissolve the sample, and water was added to a volume at the graduation mark and shaken well to give a control sample solution. 20 μL of sample solution and control sample solution were each injected, and tested by liquid chromatography. The solubility was calculated as follows:
# Solubility (mg/mL)=C (control)*25*A (sample)/A (control)
# C (control): concentration of the control sample
# A (sample): peak area of the liquid chromatogram of the sample solution
# A (control): peak area of the liquid chromatogram of the control sample solution
# [3] = Drug metabolism test (pharmacokinetics, oral, mice); format: in vivo, ICR mice; settings: 10 mg/kg; for AUC(0-inf) / AUC(0-t) / Cmax / MRT / Tmax / half-life: male, ICR, mouse, po, orally (intragastric), plasma; for pharmacokinetic properties (in words): orally, judgement on Table 6
# Procedure: 18 healthy male ICR mice with a body weight of 18-22 g were administered drugs by intragastric administration, with an administration dose of 10 mg/kg and an administration volume of 10 mL/kg, respectively. These mice were fasted for 12 h before the test and had free access to drinking water. These mice were fed 2 h after administration uniformly. 0.3 mL of blood was taken from the postocular venous plexus of a mouse at the set time points, placed in a heparinized test tube and centrifuged for 10 min at 3000 rpm; and plasma was separated and frozen in a refrigerator at −20° C. When measured, the sample was treated through the method for treating the plasma sample, and the drug concentration in plasma was determined by LC-MS/MS and the pharmacokinetic parameters of the drug were calculated.
# [4] = biological target: T1, hERG potassium channel (Homo sapiens, UniProt Q12809); assay: Inhibitory effect on hERG potassium ion channel (whole cell patch clamp, HEK-293 cells); format: cell-based; settings: hERG potassium current, room temperature, read-out: IC50 (inhibition on hERG)
# T1 construct: host or cells: HEK-293
# T1 sequence (Q12809 whole entry): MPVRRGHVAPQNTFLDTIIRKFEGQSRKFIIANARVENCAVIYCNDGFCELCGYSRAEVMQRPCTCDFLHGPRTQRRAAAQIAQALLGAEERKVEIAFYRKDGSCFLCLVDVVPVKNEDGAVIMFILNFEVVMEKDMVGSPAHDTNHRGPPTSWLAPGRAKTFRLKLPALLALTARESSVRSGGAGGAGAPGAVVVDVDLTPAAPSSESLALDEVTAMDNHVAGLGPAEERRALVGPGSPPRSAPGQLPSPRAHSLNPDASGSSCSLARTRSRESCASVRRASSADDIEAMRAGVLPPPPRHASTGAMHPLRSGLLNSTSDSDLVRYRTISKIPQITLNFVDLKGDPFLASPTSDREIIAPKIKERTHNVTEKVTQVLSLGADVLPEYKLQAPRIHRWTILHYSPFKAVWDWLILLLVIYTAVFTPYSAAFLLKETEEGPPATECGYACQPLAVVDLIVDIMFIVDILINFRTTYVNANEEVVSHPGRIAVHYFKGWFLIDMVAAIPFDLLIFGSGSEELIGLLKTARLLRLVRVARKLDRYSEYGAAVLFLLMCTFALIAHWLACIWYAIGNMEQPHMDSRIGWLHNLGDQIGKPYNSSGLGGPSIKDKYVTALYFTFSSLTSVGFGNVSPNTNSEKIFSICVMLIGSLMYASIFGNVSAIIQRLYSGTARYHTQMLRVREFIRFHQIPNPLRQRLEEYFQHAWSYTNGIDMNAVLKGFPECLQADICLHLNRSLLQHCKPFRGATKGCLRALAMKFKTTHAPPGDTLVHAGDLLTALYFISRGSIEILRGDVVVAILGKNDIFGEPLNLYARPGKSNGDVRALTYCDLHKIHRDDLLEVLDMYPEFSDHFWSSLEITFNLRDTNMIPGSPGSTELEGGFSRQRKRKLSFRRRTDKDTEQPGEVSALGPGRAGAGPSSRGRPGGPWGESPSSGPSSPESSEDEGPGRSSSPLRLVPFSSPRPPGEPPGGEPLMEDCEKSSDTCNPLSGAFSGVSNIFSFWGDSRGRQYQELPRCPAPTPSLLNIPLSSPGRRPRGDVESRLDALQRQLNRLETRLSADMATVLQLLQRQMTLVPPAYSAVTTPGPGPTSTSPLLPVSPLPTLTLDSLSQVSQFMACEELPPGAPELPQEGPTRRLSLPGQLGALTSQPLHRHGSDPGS
# Procedure: hERG potassium channel currents were recorded with the whole cell patch clamp technique at room temperature in HEK-293 cells (Creacell™, France) expressing hERG stably. A glass microelectrode with a tip resistance of about 1-4 MΩ was connected to the Axon 200A patch clamp amplifier. Clamp voltage and data record were controlled by a computer via the Axon DigiData 1322A A/D converter with the clampex 9.2 software; the cells were clamped at −80 mV; and the step voltage for inducing the hERG potassium current (IhERG) was changed from −80 mV to +20 mV by providing a 2 s depolarization voltage, repolarized to −40 mV and returned to −80 mV after 4 s. This voltage step was given respectively before and after administration to induce the hERG potassium current.
# Data analysis and processing were performed with the PatchMaster, GraphPad Prism 5 and Excel softwares. The degree of inhibition of different compound concentrations on the hERG potassium current (hERG tail current peak induced at −50 mV) was calculated using the following formula:
# Fractional block %=[1−(I/Io)]×100%
# in the formula, Fractional block represents the percent inhibition of a compound on the hERG potassium current, and I and Io represent the magnitudes of the hERG potassium current […], respectively.
# The IC50 of a compound was calculated using the following equation by fitting: […]
# in the equation, I and Io represent the magnitudes of the hERG potassium current […], respectively; [C] is the compound concentration, and n is the Hill coefficient.
# [5] = in vivo; cited from earlier work
SMILES,melting point [°C],"anti Mycobacterium tuberculosis activity (MIC against H37Rv), times of that of PA-824 [1] [times]","anti Mycobacterium tuberculosis activity (MIC against H37Rv), times of that of ethambutol [1] [times]",MIC [1] [ng/mL],Solubility [2] [µg/mL],solubility at 3 days [2] [µg/mL],AUC(0-inf) [3] [ng·h/mL],AUC(0-t) [3] [ng·h/mL],Cmax [3] [ng/mL],MRT [3] [h],Tmax [3] [h],half-life [3] [h],IC50 [4] [µM],pharmacokinetic properties (in words) [3],"oral bioavailability (in words, background) [5]"
CN(Cc1cnc(N2CCN(c3ccc(OC(F)(F)F)cc3)CC2)nc1)[C@@H]1COc2nc([N+](=O)[O-])cn2C1.O=C(O)/C=C/C(=O)O,143 to 145,–,–,–,–,–,–,–,–,–,–,–,–,–,–
"Cc1nc(N2CCN(c3ccc(OC(F)(F)F)cc3)CC2)ncc1CN[C@@H]1COc2nc([N+](=O)[O-])cn2C1 (as salt: methanesulfonate) [Compound 49, (S)-N-((4-methyl-2-(4-(4-(trifluoromethoxy)phenyl)piperazin-1-yl)pyrimidin-5-yl)methyl)-2-nitro-6,7-dihydro-5H-imidazo[2,1-b][1,3]oxazin-6-amine methanesulfonate]",175 to 177,–,–,–,–,–,–,–,–,–,–,–,–,–,–
O=[N+]([O-])c1cn2c(n1)OC[C@@H](NCc1cnc(N3CCN(c4ccc(OC(F)(F)F)cc4)CC3)nc1)C2 [Compound 18],–,8,64,7.8,1532.1,> 1000,16700,16000,1470,7.11,2,5.29,41.1,–,–
CC1CN(c2ncc(CN[C@@H]3COc4nc([N+](=O)[O-])cn4C3)cn2)CCN1c1ccc(OC(F)(F)F)cc1 (stereo partly shown) [Compound 19],–,8,64,7.8,1321.8,> 1000,16800,16300,1780,5.02,1.98,3.17,38.3,–,–
"CC1CN(c2ccc(OC(F)(F)F)cc2)CCN1c1ncc(CN[C@@H]2COc3nc([N+](=O)[O-])cn3C2)cn1 (stereo partly drawn) [Compound 20, (3S)—N-((6-(2-methyl-4-(4-(trifluoromethoxy)phenyl)piperazin-1-yl)pyrimidin-3-yl)methyl)-7-nitro-3,4-dihydro-2H-imidazo[2,1-b][1,3]oxazin-3-amine]",–,32,256,1.95,1023.8,> 1000,21600,21500,2100,4.82,2.33,2.98,–,excellent,–
"N#CC1(c2ccc(OC(F)(F)F)cc2)CCN(c2ncc(CN[C@@H]3COc4nc([N+](=O)[O-])cn4C3)cn2)CC1 [Compound 24, (S)-1-(5-(((7-nitro-3,4-dihydro-2H-imidazo[2,1-b][1,3]oxazin-3-yl)amino)methyl)pyrimidin-2-yl)-4-(4-(trifluoromethoxy)phenyl)piperidine-4-carbonitrile]",–,16,128,3.9,–,782,18300,18200,1980,4.45,2.17,3.52,–,–,–
"O=[N+]([O-])c1cn2c(n1)OC[C@@H](NCc1cnc(N3CCN(c4ccc(C(F)(F)F)cc4)CC3)nc1)C2 [Compound 31, (S)-2-nitro-N-((2-(4-(4-(trifluoromethyl)phenyl)piperazin-1-yl)pyrimidin-5-yl)methyl)-6,7-dihydro-5H-imidazo[2,1-b][1,3]oxazin-6-amine]",–,8,64,7.8,1354.8,> 1000,22500,22400,2140,4.18,1.97,3.05,39.5,excellent,–
Cc1nc(N2CCN(c3ccc(OC(F)(F)F)cc3)CC2)ncc1CN[C@@H]1COc2nc([N+](=O)[O-])cn2C1 [Compound 36],–,8,64,7.8,1123.7,> 1000,16700,16100,2020,4.71,1.87,2.87,–,–,–
C[C@]1(COc2ccc(N3CCC(Oc4ccc(OC(F)(F)F)cc4)CC3)cc2)Cn2cc([N+](=O)[O-])nc2O1 [OPC-67683],–,–,–,–,–,–,–,–,–,–,–,–,–,–,very low
"O=[N+]([O-])c1cn2c(n1)OC[C@@H](OCc1ccc(OC(F)(F)F)cc1)C2 [PA-824, reference compound]",–,–,–,62.5,–,17,–,–,–,–,–,–,–,–,low
